Laboratory results published in US11453703B2, “Heterotandem bicyclic peptide complexes” (BicycleTX Limited, priority 2018, dated 2022).

What was measured:
[1] = tested on: primary patient derived tumour cells; assay: Ex vivo culture of primary patient-derived lung tumours; assay type: cell-based, human; conditions: patient-derived lung tumour samples
Experimental: Primary patient derived tumour cells from Discovery Life Sciences (DLS) are thawed gently in 10 mL pre-warmed wash medium spiked fresh with Benzonase. The 3D spheroid kit from Greiner (cat #655840) is used to maintain cells in culture for 2 days. Briefly, tumour cells are counted with trypan blue using a haemocytometer. The cells are centrifuged at 1500 rpm for 5 min to wash, and the pellet is resuspended in 100 μL per 1×10^6 cells N3D nanoshuttle. To make them magnetic, cells are spun down at 1500 rpm for 5 min and resuspended; this process is repeated for a total of 4 times. After the final spin, cells are resuspended in the appropriate amount of fresh Lung DTC medium (DLS) to give 50,000-100,000 cells per well in 100 μL/well. Greiner cell-repellent, 96-well plates (cat #655976) are used for this experiment.
If there are cell clumps or debris visible, sample is applied to a 70-100 μm filter before plating. At least 50,000 cells per sample are reserved for a Day 0 flow cytometry panel, these cells are stained, fixed, and stored at 4° C. for later flow analysis. […] Cytokines are quantified using a custom-built cytokine/chemokine panel (IP-10, Granzyme B, IFNγ, IL-2, IL-6, TNFα, IL-8, MIP-1a, MIP-1b, MCP-1, IL-10, MIG) from R&D systems on a Luminex reader. […] Flow data is analysed with Flowjo software.

[2] = tested on: human PBMC co-cultured with 4T1-D02 (Nectin4+); assay: Human PBMC-4T1 co-culture (cytokine release) assay; assay type: cell-based; conditions: anti-CD3 stimulated PBMC, 48 hours
Procedure, shortened: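 Healthy-donor human PBMCs co-cultured 5:1 with murine Nectin-4-overexpressing 4T1-D02 cells, stimulated with 125 ng/ml soluble anti-CD3 (OKT3) plus test compounds. IL-2 and IFNγ in 48 h supernatants measured by HTRF and interpolated from standard curves; three donors, each in duplicate.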

[3] = target: CD137 (Homo sapiens, UniProt Q07011); assay: CD137 reporter assay, co-culture with Nectin-4 tumour cells; assay type: cell-based; design: host or cells: Jurkat reporter cells;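 also: jurkat reporter cells co-cultured with tumour cells and test article for 6 h, luminescence signal relative to Jurkat plus tumour cells lacking test article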
Experimental: Culture medium referred to as R1 media is prepared by adding 1% FBS to RPMI-1640 (component of Promega kit CS196005). Serial dilutions of test articles in R1 are prepared in a sterile 96 well-plate. Use 25 μl per well of test articles or R1 (as a background control) to designated wells in white cell culture plate. Tumour cells* are harvested and resuspended at a concentration of 400,000 cells/mL in R1 media. Twenty five (25) μL/well tumour cells are used in white cell culture plate. Jurkat cells (Promega kit CS196005, 0.5 mL) are thawed in the water bath and then added to 5 ml pre-warmed R1 medium. Twenty five (25) μL/well Jurkat cells are used in white cell culture plate. Incubate the cells and test articles for 6h at 37° C., 5% CO2. At the end of 6 h, add 75 μl/well Bio-Glo™ (Promega) and incubate for 10 min before reading luminescence in a plate reader (Clariostar, BMG). The fold change relative to cells (Jurkat cells+Cell line used in co-culture) is calculated and plotted in GraphPad Prism as log(agonist) vs response to determine EC50 (nM) and Fold Induction over background (Max)

[4] = Pharmacokinetics of CD137 bispecifics in SD rats; assay type: in vivo; conditions: SD Rat, 2 mg/kg IV, plasma
Experimental: Male SD Rats were dosed with 2 mg/kg of each Bicycle multimer formulated in 25 mM Histidine HCl, 10% sucrose pH 7. Serial bleeding (about 80 μL blood/time point) was performed via submadibular or saphenous vein at each time point. All blood samples were immediately transferred into prechilled microcentrifuge tubes containing 2 μL K2-EDTA (0.5M) as anti-coagulant and placed on wet ice. Blood samples were immediately processed for plasma by centrifugation at approximately 4° C., 3000 g. The precipitant including internal standard was immediately added into the plasma, mixed well and centrifuged at 12,000 rpm, 4° C. for 10 minutes. The supernatant was transferred into pre-labeled polypropylene microcentrifuge tubes, and then quick-frozen over dry ice. The samples were stored at […] or below as needed until analysis. 7.5 μL of the supernatant samples were directly injected for LC-MS/MS analysis using an Orbitrap Q Exactive in positive ion mode to determine the concentrations of Bicycle multimer. Plasma concentration versus time data were analyzed by non-compartmental approaches using the Phoenix WinNonlin 6.3 software program. C0, CI, Vdss, T½, AUC(0-last), AUC(0-inf), MRT(0-last), MRT(0-inf) and graphs of plasma concentration versus time profile were reported.

Sequence of CD137 (Q07011 24-255): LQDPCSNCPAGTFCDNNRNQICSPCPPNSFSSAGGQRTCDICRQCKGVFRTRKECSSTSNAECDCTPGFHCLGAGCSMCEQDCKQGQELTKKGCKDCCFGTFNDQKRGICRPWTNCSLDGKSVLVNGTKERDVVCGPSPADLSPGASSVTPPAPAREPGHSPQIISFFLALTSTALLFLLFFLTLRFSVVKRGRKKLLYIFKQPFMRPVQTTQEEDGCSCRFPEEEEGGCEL

In the case of `CCCC[C@@H]1NC(=O)[C@H](Cc2ccc(O)cc2)NC(=O)[C@@H]2CCCN2C(=O)[C@H](CC(=O)O)NC(=O)[C@H](C)NC(=O)[C@H](Cc2ccccc2)NC(=O)[C@@H]2CSCCC(=O)N3CN(CN(C3)C(=O)CCSC[C@@H](C(=O)N[C@@H](C)C(N)=O)NC1=O)C(=O)CCSC[C@H](NC(C)=O)C(=O)N[C@@H](CC(C)(C)C)C(=O)N1CCC[C@H]1C(=O)N[C@@H](CCC(=O)O)C(=O)N[C@H](CCCCNC(=O)CCc1cn(CCOCCOCCOCCOCCOCCC(=O)N[C@H]3CSCCC(=O)N4CN5CN(C4)C(=O)CCSC[C@H](NC(=O)[C@@H](CC(=O)O)NC(=O)[C@H](Cc4cccc6ccccc46)NC(=O)[C@@H]4CCCN4C3=O)C(=O)N[C@@H](CCSC)C(=O)N[C@@H](CCCCNC(=N)N)C(=O)N[C@@H](CC(=O)O)C(=O)N[C@@H](Cc3c[nH]c4ccccc34)C(=O)N[C@@H](CO)C(=O)N[C@@H]([C@@H](C)O)C(=O)N3CCC[C@H]3C(=O)N3C[C@H](O)C[C@H]3C(=O)N[C@@H](Cc3c[nH]c4ccccc34)C(=O)N[C@H](C(N)=O)CSCCC5=O)nn1)C(=O)N1CCC[C@H]1C(=O)N[C@@H](Cc1ccc(O)cc1)C(=O)N2` [BCY10572], the “change in immune markers (normalized to vehicle)” value ([1]; 48 h (FIG. 8)) is reported as “induced Nectin-4 dependent change in several immune markers”, the “change in % CD8+ki67+ T cells” value ([1]; Day 2 flow (FIG. 8)) is reported as “induced Nectin-4 dependent change” and the EC50 ([2]; IFN-γ secretion) is reported as 0.25 nM. For the same compound, the “max IFN-y” value [2] was 17915 pg/mL, the EC50 [3] was 0.44 nM and the “Fold Induction over Background” value ([3]; tumour target Nectin4, co-culture with H1376, 6 h) was 55 fold. It also gave a T½ [4] of 55.6 min, a clearance ([4]; male, Sprague-Dawley (SD), read-out: Clp) of 15.6 mL/min/kg and a Vd ([4]; male, Sprague-Dawley (SD), read-out: Vdss) of 0.882 L/kg.
